Results on 17 compounds are retold here after patent US12692261B2, “Substituted heterocyclic compounds and therapeutic uses thereof” (Bayer Aktiengesellschaft, priority 2020, dated 2026).

For assay [1], the target named is T1, full-length human CSNK1A1 (Homo sapiens, UniProt P48729).
T1 construct: N-terminal Glutathion-S-Transferase (GST) and full-length human CSNK1A1; purchased Life Technologies PV4174; host or cells: baculovirus infected insect cells
Put plainly: CSNK1A1 High ATP Assay (ADP-Glo, 1 mM ATP).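 Also: 30 min kinase reaction at 22 °C with 100 µM peptide substrate.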 As to conditions: Table 3, read-out: CSNK1A1 high ATP assay IC50 [mol/l] (median). Type of assay: biochemical. A digest of the protocol:
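GST-tagged full-length human CSNK1A1 from baculovirus-infected insect cells (typically about 0.4 ng/μL), pre-incubated with compound 15 min at 22 °C. Reaction with biotinylated peptide biotin-Ahx-KRRRAL-pS-VASLPGL at 1 mM ATP. ADP formed read by ADP-Glo luminescence.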

The next assay concerns the target T2, full-length human CSNK1D (Homo sapiens, UniProt P48730).
T2 construct: N-terminal Glutathion-S-Transferase (GST) and full-length human CSNK1D; purchased Life Technologies PV3665; host or cells: baculovirus infected insect cells
As to the kind of experiment: CSNK1D Assay (ADP-Glo, 1 μM ATP). Type of assay: biochemical. Particulars: Table 3, read-out: CSNK1D IC50 [mol/l] (median). A digest of the protocol: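 Enzyme is N-terminal GST-tagged full-length human CSNK1D from baculovirus-infected insect cells (typically about 0.5 ng/μL), with a biotinylated peptide substrate and 1 μM ATP. Compound pre-incubated 15 min at 22° C in HEPES pH 7.5 buffer; ADP formed is read by ADP-Glo luminescence.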

T2 sequence (P48730 whole entry): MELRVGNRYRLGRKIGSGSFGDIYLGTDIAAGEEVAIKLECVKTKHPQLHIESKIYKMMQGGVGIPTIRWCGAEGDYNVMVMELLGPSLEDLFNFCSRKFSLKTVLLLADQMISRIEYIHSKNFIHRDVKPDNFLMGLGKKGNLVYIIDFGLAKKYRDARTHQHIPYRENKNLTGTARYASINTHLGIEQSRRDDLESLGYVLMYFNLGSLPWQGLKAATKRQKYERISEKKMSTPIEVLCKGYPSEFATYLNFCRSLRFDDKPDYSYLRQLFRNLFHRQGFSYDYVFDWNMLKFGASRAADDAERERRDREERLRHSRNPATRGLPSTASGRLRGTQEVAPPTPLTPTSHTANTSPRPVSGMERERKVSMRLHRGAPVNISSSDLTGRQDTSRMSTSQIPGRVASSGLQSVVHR
T1 sequence (P48729 whole entry): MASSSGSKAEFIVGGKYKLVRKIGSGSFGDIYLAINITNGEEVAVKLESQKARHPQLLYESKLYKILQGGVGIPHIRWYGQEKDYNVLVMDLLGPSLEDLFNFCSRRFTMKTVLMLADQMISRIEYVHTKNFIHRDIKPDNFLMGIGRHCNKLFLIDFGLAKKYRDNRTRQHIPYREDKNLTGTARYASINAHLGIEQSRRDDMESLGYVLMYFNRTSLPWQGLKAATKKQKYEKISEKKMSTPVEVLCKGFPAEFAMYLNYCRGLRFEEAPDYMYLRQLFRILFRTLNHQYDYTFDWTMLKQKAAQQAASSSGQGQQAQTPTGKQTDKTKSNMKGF

With `Cc1cnc2c(-c3ccccn3)c(-c3ccnc(NC(=O)C(CC(F)F)c4ccc(F)cc4)c3)[nH]c2c1` (racemic) [Example 7, 4,4-difluoro-2-(4-fluorophenyl)-N-{4-[6-methyl-3-(pyridin-2-yl)-1H-pyrrolo[3,2-b]pyridin-2-yl]pyridin-2-yl}butanamide], the IC50 stood at 8.12 nM in assay [1] and 4.13 nM at full-length human CSNK1D.

On to `Cc1cc2[nH]c(-c3ccnc(NC(=O)C(CC(F)F)c4ccc(F)cc4)c3)c(-c3ccccn3)c2nc1F` (racemic) [Example 33, (rac)-4,4-difluoro-N-{4-[5-fluoro-6-methyl-3-(pyridin-2-yl)-1H-pyrrolo[3,2-b]pyridin-2-yl]pyridin-2-yl}-2-(4-fluorophenyl)butanamide], for which the figures for the IC50 (in assay [1]; at full-length human CSNK1D) were 19.5 nM and 37.3 nM, respectively.

For `Cc1ccc2[nH]c(-c3ccnc(NC(=O)C(CC(F)F)c4ccc(F)cc4)c3)c(-c3ccccn3)c2n1` (single isomer, unassigned) [Example 5, 4,4-difluoro-2-(4-fluorophenyl)-N-{4-[5-methyl-3-(pyridin-2-yl)-1H-pyrrolo[3,2-b]pyridin-2-yl]pyridin-2-yl}butanamide], the IC50 in assay [1] turned out to be 119 nM; on full-length human CSNK1D it was 7.13 nM.

As to `O=C(Nc1cc(-c2[nH]c3cc(F)cnc3c2-c2ccccn2)ccn1)C(CC(F)F)c1ccc(F)cc1` (single isomer, unassigned; (+)) [Example 17, (+)-4,4-difluoro-2-(4-fluorophenyl)-N-{4-[6-fluoro-3-(pyridin-2-yl)-1H-pyrrolo[3,2-b]pyridin-2-yl]pyridin-2-yl}butanamide], the IC50 in assay [1] is 5.48 nM; at full-length human CSNK1D, 3.16 nM.

Consider `CC(C)(O)c1cc(F)nc2c(-c3ccccn3)c(-c3ccnc(NC(=O)C(CC(F)F)c4ccc(F)cc4)c3)[nH]c12` (single isomer, unassigned) [Example 100, (2R or S)-4,4-difluoro-N-{4-[5-fluoro-7-(2-hydroxypropan-2-yl)-3-(pyridin-2-yl)-1H-pyrrolo[3,2-b]pyridin-2-yl]pyridin-2-yl}-2-(4-fluorophenyl)butanamide], for which the IC50 in assay [1] was found to be 33.6 nM; on full-length human CSNK1D, 46.3 nM.

With `O=C(Nc1cc(-c2[nH]c3c(OCC(F)(F)F)ncnc3c2-c2ccccn2)ccn1)C(CC(F)(F)F)c1ccc(F)cc1` (single isomer, unassigned) [Example 127, (2R or S)-4,4,4-trifluoro-2-(4-fluorophenyl)-N-{4-[7-(pyridin-2-yl)-4-(2,2,2-trifluoroethoxy)-5H-pyrrolo[3,2-d]pyrimidin-6-yl]pyridin-2-yl}butanamide], the IC50 is above 20000 nM in assay [1] and 88.1 nM on full-length human CSNK1D.

Take `O=C(Nc1cc(-c2[nH]c3nccnc3c2-c2ccccn2)ccn1)[C@@H](CC(F)F)c1ccc(F)cc1` (single isomer, unassigned) [Example 32]: the IC50 in assay [1] worked out at 1.37 nM; at full-length human CSNK1D, 4.55 nM.

As to `O=C(Nc1cc(-c2[nH]c3c(C4CCCO4)cc(F)nc3c2-c2ccccn2)ccn1)C(CC(F)F)c1ccc(F)cc1` (racemic) [Example 114, (2RS)-4,4-difluoro-2-(4-fluorophenyl)-N-(4-{5-fluoro-3-(pyridin-2-yl)-7-[(2RS)-tetrahydrofuran-2-yl]-1H-pyrrolo[3,2-b]pyridin-2-yl}pyridin-2-yl)butanamide], the IC50 in assay [1] turned out to be 37 nM; on full-length human CSNK1D, 8.03 nM.

Consider `O=C(Nc1cc(-c2[nH]c3c(OCC(F)(F)F)ncnc3c2-c2ccccn2)ccn1)C(CC(F)F)c1ccc(F)cc1` (single isomer, unassigned) [Example 123, (2R or S)-4,4-difluoro-2-(4-fluorophenyl)-N-{4-[7-(pyridin-2-yl)-4-(2,2,2-trifluoroethoxy)-5H-pyrrolo[3,2-d]pyrimidin-6-yl]pyridin-2-yl}butanamide], for which the IC50 came out at 14 nM in assay [1] and 4.49 nM on full-length human CSNK1D.

In the case of `COc1cc(F)nc2c(-c3ccccn3)c(-c3ccnc(NC(=O)C(CC(F)F)c4ccc(F)cc4)c3)[nH]c12` (racemic) [Example 39, (rac)-4,4-difluoro-N-{4-[5-fluoro-7-methoxy-3-(pyridin-2-yl)-1H-pyrrolo[3,2-b]pyridin-2-yl]pyridin-2-yl}-2-(4-fluorophenyl)butanamide], the results for the IC50 (in assay [1]; at full-length human CSNK1D) were 19 nM and 40.2 nM, respectively.

For `O=C(Nc1cc(-c2[nH]c3cccnc3c2-c2ncccn2)ccn1)C(CC(F)F)c1ccc(F)cc1` (racemic) [Example 112, (2RS)-4,4-difluoro-2-(4-fluorophenyl)-N-[4-(3-pyrimidin-2-yl-1H-pyrrolo[3,2-b]pyridin-2-yl)-2-pyridyl]butanamide], the IC50 in assay [1] came out at 217 nM; at full-length human CSNK1D, 16.9 nM.

As to `O=C(Nc1cc(-c2[nH]c3cc(F)cnc3c2-c2ccccc2)ccn1)C(CC(F)F)c1ccc(F)cc1` (single isomer, unassigned; (+)) [Example 21, (+)-4,4-difluoro-2-(4-fluorophenyl)-N-[4-(6-fluoro-3-phenyl-1H-pyrrolo[3,2-b]pyridin-2-yl)pyridin-2-yl]butanamide], the figures for the IC50 (in assay [1]; on full-length human CSNK1D) were 229 nM and 3.59 nM, respectively.

For `O=C(Nc1cc(-c2[nH]c3cccnc3c2-c2ccccn2)ccn1)C(CC(F)F)c1ccc(F)cc1` (single isomer, unassigned; (-)) [Example 12, (−)-4,4-difluoro-2-(4-fluorophenyl)-N-{4-[3-(pyridin-2-yl)-1H-pyrrolo[3,2-b]pyridin-2-yl]pyridin-2-yl}butanamide], the IC50 is 856 nM in assay [1] and 12.4 nM on full-length human CSNK1D.

`COc1cc(F)nc2c(-c3ccccn3)c(-c3ccnc(NC(=O)C(CC(F)F)c4ccc(F)cc4)c3)[nH]c12` (single isomer, unassigned; (+)) [Example 40, (+)-4,4-difluoro-N-{4-[5-fluoro-7-methoxy-3-(pyridin-2-yl)-1H-pyrrolo[3,2-b]pyridin-2-yl]pyridin-2-yl}-2-(4-fluorophenyl)butanamide]: the IC50 in assay [1] is 3.69 nM; on full-length human CSNK1D, 5.57 nM.

Consider `COc1cnc2c(-c3ccccn3)c(-c3ccnc(NC(=O)C(CC(F)F)c4ccc(F)cc4)c3)[nH]c2n1` (single isomer, unassigned) [Example 103, 4,4-difluoro-2-(4-fluorophenyl)-N-{4-[3-methoxy-7-(pyridin-2-yl)-5H-pyrrolo[2,3-b]pyrazin-6-yl]pyridin-2-yl}butanamide], for which the IC50 in assay [1] worked out at 1.97 nM; at full-length human CSNK1D it was 4.3 nM.

Turning to `O=C(Nc1cc(-c2[nH]c3nccnc3c2-c2ccccn2)ccn1)C(CC(F)(F)F)c1ccc(F)cc1` (racemic) [Example 119, (2RS)-4,4,4-trifluoro-2-(4-fluorophenyl)-N-{4-[7-(pyridin-2-yl)-5H-pyrrolo[2,3-b]pyrazin-6-yl]pyridin-2-yl}butanamide], the IC50 in assay [1] was determined as 48.6 nM; on full-length human CSNK1D, 7.07 nM.

As to `O=C(Nc1cc(-c2[nH]c3cccnc3c2-c2cccc(F)n2)ccn1)C(CC(F)F)c1ccc(F)cc1` (racemic) [Example 25, 4,4-difluoro-2-(4-fluorophenyl)-N-{4-[3-(6-fluoropyridin-2-yl)-1H-pyrrolo[3,2-b]pyridin-2-yl]pyridin-2-yl}butanamide], the IC50 in assay [1] was 18.6 nM; at full-length human CSNK1D, 7.87 nM.
